Results reported in patent US5942494A, “Stimulation of gene expression and synthesis of heat shock protein 72/73 (HSP 70)” (The Trustees of Columbia University in the City of New York, priority 1996, dated 1999).
Square brackets hold non-standard residues; d marks the D form. Peptide text beside a SMILES is read from it. Nle = CCCC[C@H](N)C(=O)O

Experiments:
Hsp70 = test: Pulse-chase turnover of radiolabeled Hsp70 in HepG2 cells; format: cell-based, human
Method: FIGS. 4A-4B: Effects of ALLN on Hsp70 turnover and synthesis rates in HepG2 cells. Confluent culture dishes were preincubated for 4 hours with serum-free MEM containing either 1.5% BSA alone (Control) or BSA plus 40 μg/ml of ALLN (ALLN). (A) The preincubated cells were radiolabeled with 3H-leucine (150 μCi/ml) in serum-free, leucine-free medium with/without ALLN for 20 min., washed 3 times with medium free of isotope and then chased in serum-free medium containing BSA with/without ALLN for up to 20 hours. At the indicated time points, cells were harvested and lysed. Samples were immediately stored in a -80° C. freezer. Immunoprecipitation of Hsp70 was performed as described in FIG. 1. Data at each time point were presented as means of cpm from duplicate dishes. (B) . […]
FIGS. 8A-8C: Effects of ALLN on Hsp70 synthesis and turnover rates in HepG2 cells. […] Immunoprecipitates were analyzed on SDS-PAGE and fluorography (A) and also aliquoted for scintillation counting (B). […]
(§1) HepG2 cells were preincubated for 4 hours in serum-free MEM and then radiolabeled with ^3 H-Leucine (150 μCi/ml) in a serum-free, leucine-free medium. […] Cell lysates containing equal amounts of trichloroacetic acid (TCA)-insoluble radioactivity were used for immunoprecipitations by incubating with individual monoclonal antibody (1 μg/ml) for 2.5 hours at 4° C. […]

albumin = test: Immunoprecipitation of albumin from radiolabeled HepG2 cells; format: cell-based, human; settings: HepG2, ALLN 4 hours
Method: FIGS. 7A-7B: Effects of ALLN on the biosynthesis of other members of Hsp family and related proteins. HepG2 cells were pre-treated and radiolabeled with or without ALLN for 4 hours as described in FIG. 1. Cell lysates were used for SDS-PAGE (A), or for immunoprecipitation with anti-Hsp25, -Hsp27, -Hsp60, -Hsp70, -Hsp86, -Hsp90, -Hsp104, -Bip, or -albumin antibodies respectively (1 μg/ml) (B). Because the anti-Hsp25, -Hsp27, -Hsp60 and Hsp90 antibodies are from a rat source, rabbit anti-rat IgG antibody was added after the first incubation, and the incubation was extended for another 1 hour at 4° C. before collection with protein A-Sepharose.Immunoprecipitates were loaded for SDS-PAGE and aliquoted for scintillation counting and plotting. Each value was presented as mean ±S.D. from three individual culture dishes.
as §1

CCCC[C@@H](C=O)NC(=O)[C@H](CC(C)C)NC(=O)[C@H](CC(C)C)NC(C)=O [ALLN, N-acetyl-leucyl-leucyl-norleucinal] (Ac-Leu-Leu-[Nle]-aldehyde)
Half life of newly synthesized Hsp70 in the presence of ALLN (Hsp70; ALLN 40 μg/ml, pulse-chase, HepG2): about 6 hours | Increase in the half-life of Hsp70 (Hsp70; ALLN versus no ALLN): 3-4 fold | Effect on albumin (albumin): no effects
